Assay results as given in patent US20150203474A1, “SOLID FORMS COMPRISING INHIBITORS OF HCV NS5A, COMPOSITIONS THEREOF, AND USES THEREWITH” (PRESIDIO PHARMACEUTICALS ,INC., priority 2012, published 2015).
Values after ≈ are worked out from the molar mass of the structure shown. Read-outs that look alike come from different tables or passages of the source.

What was measured:
[1] = PK study of Form A of Compound I in dogs; type: in vivo; conditions: PO dose of 75 mg/kg
Description: The pharmacokinetics (PK) properties of Form A of Compound I and Form I of Compound II were determined in a series of comprehensive experiments in preclinical species including Sprague-Dawley rats, beagle dogs, cynomolgus monkeys. In those studies, the Form A crystalline salt of Compound I (and Form I crystalline salt of Compound II) was formulated in saline, 0.5% MC in saline or other commonly used suitable formulation vehicles to give a clear solution or as a suspension or a paste depending on the concentration intended to reach and the choice of vehicles. Dosing was by oral gavage. Blood samples were drawn and placed into individual tube containing K2EDTA. Blood samples were put on ice and centrifuged (2000 g for 5 minutes at 4° C.) to obtain plasma within 15 minutes after collection. Plasma samples were stored at approximately −80° C. freezer until analysis. For most of these analyses, Compound I (and Compound II) and the internal standard (IS) were extracted from rat, monkey or dog plasma by protein precipitation, and the extract was evaporated, reconstituted and analyzed using HPLC with tandem mass spectrometric detection (HPLC-MS/MS), see examples for further details. Calibration was accomplished by weighted linear regression of the ratio of the peak area of analyte to that of the added internal standard (IS). For the validated assay in rat and monkey EDTA plasma, the Lower Limit of Quantitation (LLOQ) for both compound 1 and 2 was 5.00 ng/mL, and the assay was linear from 5.00-1,000 ng/mL. PK parameters were calculated by non-compartmental analysis using WinNonlin (versions 4.1 through 6.1). Non-naïve Beagle Dog, 8.0-9.5 kg were used in the study. The dosing solution was prepared by dissolving 1.90 g of Form A of Compound I (1.67 g free base equivalent) in 222.237 mL of 0.5% MC and vortexed for 20 min, sonicated for 2 min to obtain a colorless clear solution. The animals were restrained manually, and approx. 0.6-1 mL blood/time point was collected from cephalic or saphenous veins into pre-cooled EDTA tubes. Blood samples were put on ice and centrifuged at 4° C. to obtain plasma within 30 minutes of sample collection. […] 5 μL of the supernatant was injected for LC-MS/MS analysis. • For dilution samples: • An aliquot of 10 μL plasma sample was added with 90 μL blank Beagle dog plasma. The dilution factor was 10. An aliquot of 30 μL dilution plasma was added with 200 μL IS in ACN (testosterone as IS, 100.0 ng/mL), the mixture was vortexed for 2 min and centrifuged at 12000 rpm for 5 min. 5 μL of the supernatant was injected for LC-MS/MS analysis.

[2] = Solubility of Form I and free base compound 4-3 (visual and HPLC assay of filtrate); type: physicochemical; conditions: for solubility at 24 h: thermodynamic from solid; for solubility at 24 h / HPLC Solubility / Visual Solubility (observation in words): target conc. 2.0 mg/mL; for pH (Filtrated): filtrate of solubility sample
Description: Solubility of Form I as well as the free base compound 4-3 was tested. Solubility was measured by placing a small quantity of the compound to be analyzed in a glass vial, capping and rotating the vial overnight at ambient conditions (24 hours). Target concentration was 2.0 mg/mL. The samples were filtrated with 0.45-μm filters. The subsequent filtrate was collected for HPLC assay. HPLC conditions are shown in Table 10 in Appendix A. Solubility for Form I is shown in Table 11 and for the free base compound 4-3 is shown in Table 12 in Appendix A. [table]

[3] = beagle, dog, plasma, po, 75 mg/kg, Dog #1, read-out: plasma concentration
[4] = beagle, dog, plasma, po, 75 mg/kg, Dog #2, read-out: plasma concentration
[5] = beagle, dog, plasma, po, 75 mg/kg, Mean, read-out: mean plasma concentration

Question: With `COC(=O)N[C@H](C(=O)N1CCC[C@H]1c1ncc(-c2ccc3cc(-c4ccc5nc([C@@H]6CCCN6C(=O)[C@@H](NC(=O)OC)C(C)C)[nH]c5c4)ccc3c2)[nH]1)C(C)C` [Form A of Compound I] as the compound, how does the plasma concentration ([1]; Beagle Dog, 0.083 hr, Dog #1) read?
Answer: BQL

Question: What about the concentration at 0.083 hr ([1]; beagle, dog, plasma, po, 75 mg/kg, 0.083 hr, Dog #2, read-out: plasma concentration) of the same compound?
Answer: 5.92 ng/mL

Question: And the concentration at 0.083 hr ([1]; beagle, dog, plasma, po, 75 mg/kg, 0.083 hr, Mean, read-out: mean plasma concentration)?
Answer: 5.92 ng/mL

Question: And the concentration at 0.25 h [1, 3]?
Answer: 267 ng/mL

Question: What about the concentration at 0.25 h [1, 4] of the same compound?
Answer: 374 ng/mL

Question: And the concentration at 0.25 h [1, 5]?
Answer: 320 ng/mL

Question: What about the concentration at 0.5 h ([1]; beagle, dog, plasma, po, 75 mg/kg, 0.5 hr, Dog #1) of the same compound?
Answer: 1090 ng/mL

Question: And the concentration at 0.5 hr ([1]; beagle, dog, plasma, po, 75 mg/kg, 0.5 hr, Dog #2, read-out: plasma concentration)?
Answer: 952 ng/mL

Question: And the concentration at 0.5 hr ([1]; beagle, dog, plasma, po, 75 mg/kg, 0.5 hr, Mean, read-out: mean plasma concentration)?
Answer: 1020 ng/mL

Question: What about the concentration at 1 hr [1, 3] of the same compound?
Answer: 1590 ng/mL

Question: And the concentration at 1 hr [1, 4]?
Answer: 2050 ng/mL

Question: What about the concentration at 1 hr [1, 5] of the same compound?
Answer: 1820 ng/mL

Question: And the concentration at 2 hr [1, 3]?
Answer: 2980 ng/mL

Question: What about the concentration at 2 hr [1, 4] of the same compound?
Answer: 2400 ng/mL

Question: And the concentration at 2 hr [1, 5]?
Answer: 2690 ng/mL

Question: And the concentration at 4 hr [1, 3]?
Answer: 3080 ng/mL

Question: What about the concentration at 4 hr [1, 4] of the same compound?
Answer: 1540 ng/mL

Question: What about the concentration at 4 hr [1, 5] of the same compound?
Answer: 2310 ng/mL

Question: What about the concentration at 6 hr [1, 3] of the same compound?
Answer: 3590 ng/mL

Question: And the concentration at 6 hr [1, 4]?
Answer: 1320 ng/mL

Question: What about the concentration at 6 hr [1, 5] of the same compound?
Answer: 2450 ng/mL

Question: And the concentration at 8 hr [1, 3]?
Answer: 3500 ng/mL

Question: What about the concentration at 8 hr [1, 4] of the same compound?
Answer: 1040 ng/mL

Question: And the concentration at 8 hr [1, 5]?
Answer: 2270 ng/mL

Question: And the concentration at 24 hr [1, 3]?
Answer: 244 ng/mL

Question: What about the concentration at 24 hr [1, 4] of the same compound?
Answer: 2160 ng/mL

Question: What about the concentration at 24 hr [1, 5] of the same compound?
Answer: 1200 ng/mL

Question: With `CC[C@H](C)[C@H](NC(=O)OC)C(=O)N1CCC[C@H]1c1nc2ccc(-c3ccc4cc(-c5cnc([C@@H]6CCCN6C(=O)[C@@H](NC(=O)OC)[C@@H](C)OC)[nH]5)ccc4c3)cc2[nH]1` [Form I of Compound II] as the compound, how does the solubility at 24 h ([2]; 0.1N HCl, simulated gastric fluid, 0.1N HCl, 24 hours ambient, 0.45-μm filtrate, read-out: HPLC Solubility) read?
Answer: 2070 µg/mL (≈ 2610 µM)

Question: What about the solubility at 24 h ([2]; 0.1N HCl, simulated gastric fluid, 0.1N HCl, read-out: Visual Solubility) of the same compound?
Answer: > 2000 µg/mL

Question: What about the “pH (Filtrated)” value ([2]; 0.1N HCl, listed as Form I) of the same compound?
Answer: 1.00

Question: And the “pH (Filtrated)” value ([2]; Water, listed as Form I)?
Answer: 3.45

Question: What about the “HPLC Solubility” value ([2]; Water, 24 hours ambient, 0.45-μm filtrate, listed as Form I) of the same compound?
Answer: 2036 µg/mL

Question: What about the solubility at 24 h ([2]; pH 2 medium, pH 2, simulated gastric fluid, pH 2 medium, 24 hours ambient, 0.45-μm filtrate, read-out: HPLC Solubility) of the same compound?
Answer: 2050 µg/mL (≈ 2590 µM)

Question: And the solubility at 24 h ([2]; pH 2 medium, pH 2, simulated gastric fluid, pH 2 medium, read-out: Visual Solubility)?
Answer: > 2000 µg/mL

Question: And the “pH (Filtrated)” value ([2]; pH 2 medium, listed as Form I)?
Answer: 2.00

Question: And the solubility at 24 h ([2]; pH 3 medium, pH 3, aqueous buffer, pH 3 medium, 24 hours ambient, 0.45-μm filtrate, read-out: HPLC Solubility)?
Answer: 2030 µg/mL (≈ 2560 µM)

Question: What about the solubility at 24 h ([2]; pH 3 medium, pH 3, aqueous buffer, pH 3 medium, read-out: Visual Solubility) of the same compound?
Answer: > 2000 µg/mL

Question: And the “pH (Filtrated)” value ([2]; pH 3 medium, listed as Form I)?
Answer: 2.96

Question: What about the “pH (Filtrated)” value ([2]; pH 4 medium, listed as Form I) of the same compound?
Answer: 3.55

Question: What about the “HPLC Solubility” value ([2]; pH 4 medium, 24 hours ambient, 0.45-μm filtrate, listed as Form I) of the same compound?
Answer: 1857 µg/mL

Question: And the “Visual Solubility (observation in words)” value ([2]; pH 4 medium, listed as Form I)?
Answer: A few

Question: What about the “pH (Filtrated)” value ([2]; pH 5 medium, listed as Form I) of the same compound?
Answer: 3.63

Question: And the “Visual Solubility (observation in words)” value ([2]; pH 5 medium)?
Answer: Turbid +

Question: What about the “HPLC Solubility” value ([2]; pH 5 medium, 24 hours ambient, 0.45-μm filtrate, listed as Form I) of the same compound?
Answer: 1106 µg/mL

Question: What about the “pH (Filtrated)” value ([2]; pH 6 medium, listed as Form I) of the same compound?
Answer: 5.44

Question: And the “Visual Solubility (observation in words)” value ([2]; pH 6 medium, listed as Form I)?
Answer: Many

Question: And the “pH (Filtrated)” value ([2]; pH 7 medium, listed as Form I)?
Answer: 6.86

Question: What about the “Visual Solubility (observation in words)” value ([2]; pH 7 medium, listed as Form I) of the same compound?
Answer: Many

Question: And the “pH (Filtrated)” value ([2]; pH 8 medium, listed as Form I)?
Answer: 7.58

Question: And the “Visual Solubility (observation in words)” value ([2]; pH 8 medium, listed as Form I)?
Answer: Many

Question: What about the solubility at 24 h ([2]; water, Water, read-out: Visual Solubility) of the same compound?
Answer: > 2000 µg/mL
